According to patent US20170209447A1, “Use of PNP Inhibitor to Treat Relapse of Malignancy after Hematopoietic Stem Cell Transplant” (Nitor Therapeutics, priority 2014, published 2017):

Key:
Format in all cases: cell-based
human TLR5 = molecular target: T1, human TLR5 (Homo sapiens, UniProt O60602); assay: TLR ligand screening: NF-κB SEAP reporter in HEK293 cells expressing TLR5; conditions: one concentration: NTR001 10 uM, Inosine 100 uM, triplicate, FIG. 2
T1 construct: expressed in transfected cells; host or cells: HEK293
T1 sequence (O60602 21-858): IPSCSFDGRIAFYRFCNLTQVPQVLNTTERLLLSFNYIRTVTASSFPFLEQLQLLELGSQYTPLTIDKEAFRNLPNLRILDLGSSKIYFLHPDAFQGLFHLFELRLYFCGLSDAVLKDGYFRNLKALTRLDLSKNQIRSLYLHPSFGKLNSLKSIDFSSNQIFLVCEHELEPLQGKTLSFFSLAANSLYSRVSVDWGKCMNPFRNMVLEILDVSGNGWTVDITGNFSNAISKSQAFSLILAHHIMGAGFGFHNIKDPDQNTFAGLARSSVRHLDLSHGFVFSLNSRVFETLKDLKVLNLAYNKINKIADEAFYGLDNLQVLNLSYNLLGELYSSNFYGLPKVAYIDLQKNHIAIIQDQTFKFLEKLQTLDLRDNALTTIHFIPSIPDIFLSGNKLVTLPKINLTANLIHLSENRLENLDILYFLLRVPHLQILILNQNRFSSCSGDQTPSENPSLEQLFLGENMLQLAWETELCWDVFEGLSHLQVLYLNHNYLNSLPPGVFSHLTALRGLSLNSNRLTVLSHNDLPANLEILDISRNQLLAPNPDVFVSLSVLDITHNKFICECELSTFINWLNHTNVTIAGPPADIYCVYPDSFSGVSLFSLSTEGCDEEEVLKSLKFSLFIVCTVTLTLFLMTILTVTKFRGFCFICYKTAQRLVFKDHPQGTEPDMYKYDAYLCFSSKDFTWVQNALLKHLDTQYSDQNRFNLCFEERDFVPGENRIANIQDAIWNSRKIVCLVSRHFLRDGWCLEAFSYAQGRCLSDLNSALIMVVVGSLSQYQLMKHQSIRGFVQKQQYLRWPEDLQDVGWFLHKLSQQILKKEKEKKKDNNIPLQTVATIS
Experimental: (§1) Toll-Like Receptor (TLR) Ligand Screening: In-vitro Activity of the PNPi, Guanosine and Inosine on Seven Different Human TLRs (TLR2, 3, 4, 5, 7, 8 and 9) as a Potential Agonist.
(§2) Method: TLR stimulation is tested by assessing NF-KB activation in HEK293 cells expressing a given TLR. The Secreted Embryonic Alkaline Phosphatase (SEAP) reporter is under the control of a promoter inducible by the transcription factor NF-κB.
(§3) This reporter gene allows the monitoring of signaling through the TLR, based on the activation of NF-κB. The compounds are evaluated at one concentration and compared to control ligands. This step is performed in triplicate.

human TLR9 = molecular target: T2, human TLR9 (Homo sapiens, UniProt Q9NR96); assay: TLR ligand screening: NF-κB SEAP reporter in HEK293 cells expressing TLR9; conditions: one concentration: NTR001 10 uM, Inosine 100 uM, triplicate, FIG. 2
T2 construct: expressed in transfected cells; host or cells: HEK293
T2 sequence (Q9NR96 26-1032): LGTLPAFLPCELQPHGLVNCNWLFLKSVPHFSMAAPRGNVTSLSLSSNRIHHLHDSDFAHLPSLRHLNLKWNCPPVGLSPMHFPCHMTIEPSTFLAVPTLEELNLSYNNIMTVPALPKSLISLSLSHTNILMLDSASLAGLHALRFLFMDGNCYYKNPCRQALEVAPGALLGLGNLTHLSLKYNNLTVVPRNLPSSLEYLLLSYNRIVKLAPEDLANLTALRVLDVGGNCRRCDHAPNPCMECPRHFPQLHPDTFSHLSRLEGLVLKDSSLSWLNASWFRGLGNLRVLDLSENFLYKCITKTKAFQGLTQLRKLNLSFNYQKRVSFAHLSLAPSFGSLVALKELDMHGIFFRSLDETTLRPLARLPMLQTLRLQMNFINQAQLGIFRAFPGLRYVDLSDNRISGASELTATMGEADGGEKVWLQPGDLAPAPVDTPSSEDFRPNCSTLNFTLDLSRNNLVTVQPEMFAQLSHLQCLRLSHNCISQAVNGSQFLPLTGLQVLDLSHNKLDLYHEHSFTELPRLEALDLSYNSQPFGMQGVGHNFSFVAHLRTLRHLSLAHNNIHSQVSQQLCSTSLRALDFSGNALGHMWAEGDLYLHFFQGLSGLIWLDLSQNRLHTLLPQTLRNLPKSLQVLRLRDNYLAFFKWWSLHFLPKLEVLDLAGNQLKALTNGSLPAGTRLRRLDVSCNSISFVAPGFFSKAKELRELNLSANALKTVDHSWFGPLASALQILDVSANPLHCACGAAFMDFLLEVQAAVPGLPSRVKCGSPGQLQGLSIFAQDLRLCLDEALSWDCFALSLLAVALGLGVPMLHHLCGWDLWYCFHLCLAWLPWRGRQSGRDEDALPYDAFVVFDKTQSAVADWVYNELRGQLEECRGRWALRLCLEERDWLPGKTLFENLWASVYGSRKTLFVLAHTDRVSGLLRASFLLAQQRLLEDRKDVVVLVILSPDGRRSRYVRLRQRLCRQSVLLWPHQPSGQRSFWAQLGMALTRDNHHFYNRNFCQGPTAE
Experimental: as §1, §2, §3

human TLR3 = molecular target: T3, human TLR3 (Homo sapiens, UniProt O15455); assay: TLR ligand screening: NF-κB SEAP reporter in HEK293 cells expressing TLR3; conditions: one concentration: NTR001 10 uM, Inosine 100 uM, triplicate, FIG. 2
T3 construct: expressed in transfected cells; host or cells: HEK293
T3 sequence (O15455 24-904): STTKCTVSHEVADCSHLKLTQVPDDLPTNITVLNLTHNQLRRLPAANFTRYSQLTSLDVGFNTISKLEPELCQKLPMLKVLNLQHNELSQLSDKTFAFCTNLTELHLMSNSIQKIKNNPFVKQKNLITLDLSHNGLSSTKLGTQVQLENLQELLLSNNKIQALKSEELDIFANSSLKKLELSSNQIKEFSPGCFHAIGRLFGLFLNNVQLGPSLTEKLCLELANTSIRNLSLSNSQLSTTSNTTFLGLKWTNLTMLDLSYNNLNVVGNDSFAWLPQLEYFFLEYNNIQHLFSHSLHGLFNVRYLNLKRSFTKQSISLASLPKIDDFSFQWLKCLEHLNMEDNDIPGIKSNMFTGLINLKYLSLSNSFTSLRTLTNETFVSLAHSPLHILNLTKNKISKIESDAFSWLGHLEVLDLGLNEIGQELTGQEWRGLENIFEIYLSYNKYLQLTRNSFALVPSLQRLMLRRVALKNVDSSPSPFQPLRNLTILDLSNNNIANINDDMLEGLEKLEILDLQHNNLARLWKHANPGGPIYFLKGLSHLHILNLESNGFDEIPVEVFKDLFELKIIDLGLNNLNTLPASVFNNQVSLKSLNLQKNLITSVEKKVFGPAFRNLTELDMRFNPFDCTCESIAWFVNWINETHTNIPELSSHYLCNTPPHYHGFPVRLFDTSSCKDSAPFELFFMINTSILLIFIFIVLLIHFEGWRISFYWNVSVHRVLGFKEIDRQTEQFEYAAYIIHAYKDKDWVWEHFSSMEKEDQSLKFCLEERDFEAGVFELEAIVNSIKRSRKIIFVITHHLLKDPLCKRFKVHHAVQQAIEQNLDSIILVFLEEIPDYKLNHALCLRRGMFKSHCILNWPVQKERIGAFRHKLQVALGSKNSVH
Experimental: as §1, §2, §3

human TLR4 = molecular target: T4, human TLR4 (Homo sapiens, UniProt O00206); assay: TLR ligand screening: NF-κB SEAP reporter in HEK293 cells expressing TLR4; conditions: one concentration: Guanosine 100 uM, NTR001 10 uM, Inosine 100 uM; HEK293; triplicate; FIG. 2
T4 construct: expressed in transfected cells; host or cells: HEK293
T4 sequence (O00206 24-839): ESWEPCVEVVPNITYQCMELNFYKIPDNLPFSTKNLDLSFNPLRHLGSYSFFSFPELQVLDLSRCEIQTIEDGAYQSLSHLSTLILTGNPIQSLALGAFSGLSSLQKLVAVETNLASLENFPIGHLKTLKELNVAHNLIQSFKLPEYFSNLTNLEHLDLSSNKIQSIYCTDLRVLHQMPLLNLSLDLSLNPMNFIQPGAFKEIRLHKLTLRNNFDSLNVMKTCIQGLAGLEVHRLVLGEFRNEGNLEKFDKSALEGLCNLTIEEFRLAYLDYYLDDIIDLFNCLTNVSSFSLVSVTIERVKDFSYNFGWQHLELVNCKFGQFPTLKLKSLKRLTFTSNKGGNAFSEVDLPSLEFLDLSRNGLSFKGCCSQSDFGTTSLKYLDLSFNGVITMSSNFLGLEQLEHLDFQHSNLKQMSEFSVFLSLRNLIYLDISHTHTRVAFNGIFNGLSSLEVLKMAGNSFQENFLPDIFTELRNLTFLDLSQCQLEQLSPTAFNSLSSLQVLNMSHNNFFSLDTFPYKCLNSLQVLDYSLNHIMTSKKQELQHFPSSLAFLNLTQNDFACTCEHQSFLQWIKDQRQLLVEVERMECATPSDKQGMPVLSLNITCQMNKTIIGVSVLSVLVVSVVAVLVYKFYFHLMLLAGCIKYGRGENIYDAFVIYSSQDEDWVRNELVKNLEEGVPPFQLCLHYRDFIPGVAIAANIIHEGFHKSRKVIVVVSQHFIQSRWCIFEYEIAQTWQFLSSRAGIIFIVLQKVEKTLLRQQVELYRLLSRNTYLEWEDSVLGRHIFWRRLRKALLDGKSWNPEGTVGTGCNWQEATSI
T4 sequence (Q9Y6Y9 17-160 partner limits assumed): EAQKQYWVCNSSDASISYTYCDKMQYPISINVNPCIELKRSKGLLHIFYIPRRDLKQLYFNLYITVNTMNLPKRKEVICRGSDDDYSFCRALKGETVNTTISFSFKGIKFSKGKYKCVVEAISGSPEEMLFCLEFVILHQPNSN
Experimental: as §1, §2, §3

human TLR2 = molecular target: T5, human TLR2 (Homo sapiens, UniProt O60603); assay: TLR ligand screening: NF-κB SEAP reporter in HEK293 cells expressing TLR2; conditions: one concentration: Guanosine 100 uM, NTR001 10 uM, Inosine 100 uM; HEK293; triplicate; FIG. 2
T5 construct: expressed in transfected cells; host or cells: HEK293
T5 sequence (O60603 21-784): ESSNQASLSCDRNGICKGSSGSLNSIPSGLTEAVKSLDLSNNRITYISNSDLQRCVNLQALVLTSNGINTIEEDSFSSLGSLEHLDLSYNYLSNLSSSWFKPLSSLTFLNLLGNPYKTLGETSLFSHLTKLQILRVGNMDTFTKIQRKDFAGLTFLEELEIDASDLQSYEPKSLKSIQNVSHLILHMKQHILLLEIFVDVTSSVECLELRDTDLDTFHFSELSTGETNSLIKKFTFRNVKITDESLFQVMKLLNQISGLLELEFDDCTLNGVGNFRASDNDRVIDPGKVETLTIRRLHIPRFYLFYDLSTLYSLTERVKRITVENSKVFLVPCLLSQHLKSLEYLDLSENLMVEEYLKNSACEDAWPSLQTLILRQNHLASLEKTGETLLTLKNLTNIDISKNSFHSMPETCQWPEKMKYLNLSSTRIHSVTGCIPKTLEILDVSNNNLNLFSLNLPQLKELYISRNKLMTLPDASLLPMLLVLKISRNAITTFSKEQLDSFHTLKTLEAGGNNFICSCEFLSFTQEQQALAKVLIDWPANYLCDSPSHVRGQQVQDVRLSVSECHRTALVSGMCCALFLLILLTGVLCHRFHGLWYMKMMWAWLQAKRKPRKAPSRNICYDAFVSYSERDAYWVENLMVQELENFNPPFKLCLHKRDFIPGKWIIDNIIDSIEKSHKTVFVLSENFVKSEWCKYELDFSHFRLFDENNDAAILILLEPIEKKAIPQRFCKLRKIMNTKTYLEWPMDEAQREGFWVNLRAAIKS
Experimental: as §1, §2, §3

OC[C@H]1O[C@@H](n2cnc3c(O)ncnc32)[C@H](O)[C@@H]1O [Inosine, inosine]
do not exhibit a stimulatory effect: stimulatory effect on human TLR5 (NF-κB activation) (human TLR5) | stimulatory effect on human TLR9 (NF-κB activation) (human TLR9) | stimulatory effect on human TLR3 (NF-κB activation) (human TLR3) | stimulatory effect on human TLR4 (NF-κB activation) (human TLR4) | stimulatory effect on human TLR2 (NF-κB activation) (human TLR2)

O=c1[nH]cnc2c([C@@H]3N[C@H](CO)[C@@H](O)[C@H]3O)c[nH]c12 [NTR001, 7-[(2S,3S,4R,5R)-3,4-dihydroxy-5-(hydroxymethyl)-2-pyrrolidinyl]-1,5-dihyro-4-H-pyrrolo-[3,2-d]pyrimidin-4-one]
do not exhibit a stimulatory effect: stimulatory effect on human TLR5 (NF-κB activation) (human TLR5) | stimulatory effect on human TLR9 (NF-κB activation) (human TLR9) | stimulatory effect on human TLR3 (NF-κB activation) (human TLR3) | stimulatory effect on human TLR4 (NF-κB activation) (human TLR4) | stimulatory effect on human TLR2 (NF-κB activation) (human TLR2)
